In patent US6869589B1, “Cryptate compounds and methods for diagnosis and therapy” (Australian Nuclear Science & Technology Organization, priority 1999, dated 2005):

Experiment: Serum stability of ^67Cu complex in human plasma at 37° C., size exclusion chromatography
Format: in vitro ADME
Settings: first 174 hours
Method: Serum stability studies were conducted by incubating a ^67Cu complex of related species (4) in human plasma at 37° C. [drawing 11]
At various time intervals, the complex was separated from the plasma by size exclusion chromatography and the complex breakdown was assessed. […] (FIGS. 1a and 1b).

Copper lost from the chelator: no more than 2%
SMILES: C1CNCC2CNCCNCC(CN1)CNCCNC2.[67Cu+2] [^67Cu complex of compound (4)]
